In US11654036B2, “Anticoagulant compounds and methods and devices for their use” (priority 2020, dated 2023):
Like-named read-outs stand apart in the source and are kept apart here.

Experiments:
[1] = test system: Calcium-reconstituted sheep blood; assay: Activated clotting time (ACT); details: individual drug at 0.6 ng/mg
Protocol: The activated clotting time (ACT) evaluation of anticoagulants was performed in Calcium-reconstituted sheep blood and recorded employing the Hemochron® Response device. […] A target amount of drug solution was then added into the test tube. […] The tube was gently shaken before being inserted into the Hemochron Response detector. The ACT read out was recorded and reported. The ACT of the control blood in the absence of any drug as first determined to establish a baseline. Then ACT was determined in the presence of different concentrations of the drug as a single component. Selected drug combinations, were then tested to evaluate for potential synergy in action between the two drugs.

[2] = Tissue drug concentration in stented and adjacent artery segments (LCMS); format: in vivo, porcine; details: pig, artery tissue adjacent to the stented segment, other: drug eluting stent implanted in coronary artery, Table 4B, stent arm not named; for concentration at 90 days: within 90 days; for concentration at 3 h: within 3 hours; for concentration at 28 days: within 28 days
Excerpt: The stented artery was cut longitudinally with surgical scissors. The stents were separated from the tissue.

[3] = test system: Human Aortic SMC (HAoSMC); assay: HAoSMC cell proliferation assay; format: cell-based; details: 72 hours incubation
[4] = test system: Tissue factor generated antiplatelet; details: cited from earlier work
[5] = Coated balloon tissue concentration in vivo (Table 7); parameters: species or system porcine; details: for concentration at 15 min: 300 μg
Excerpt: The balloon (e.g., the balloon of a balloon-catheter of a stent-delivery system) was advanced to a site to be treated (e.g., an occluded or weakened section of a blood vessel to be opened up or supported by a stent) in the body of a subject and inflated to a desired inflation diameter. Before, during, and/or after inflation of the balloon, the balloon released the therapeutic composition to, into, or at the treatment site, or to, into, or at an area adjacent thereto, by any suitable mechanism (e.g., concentration gradient, diffusion, pressure, or mechanical force, or a combination thereof). […] The tissue concentration is shown in ng/mg tissue. The coated balloons were evaluated for drug delivery efficiency in an animal study. Drug transfer of the coated balloons into arterial segments were evaluated using harvested pig arteries. The arterial wall was separated after animal study. The arterial walls were then stored in an individual labeled vial. All samples were kept on dry ice until stored in the −80° C. freezer. All samples were then frozen to […] prior to being analyzed.

Structure (SMILES)	concentration at 3 h [2] [ng/g]	concentration at 28 days [2] [ng/g]	ACT [1]	concentration at 90 days [2] [ng/g]	IC50 [4] [nM]	IC50 for Tissue factor generated antiplatelet [4] [ng/mg]	further results
COc1ccc(-n2nc(C(N)=O)c3c2C(=O)N(c2ccc(N4CCCCC4=O)cc2)CC3)cc1 [Apixaban]	–	–	522	–	–	–	–
CC1CNc2c(cccc2S(=O)(=O)N[C@@H](CCCNC(=N)N)C(=O)N2CC[C@@H](C)C[C@@H]2C(=O)O)C1 (some centres unmarked) [Argatroban]	–	–	301	~3740	79	0.04	HAoSMC proliferation inhibition [3]: small to no inhibition
CO[C@@H]1C[C@H](C[C@@H](C)[C@@H]2CC(=O)[C@H](C)/C=C(\C)[C@@H](O)[C@@H](OC)C(=O)[C@H](C)C[C@H](C)/C=C/C=C/C=C(\C)[C@@H](O)C[C@@H]3CC[C@@H](C)[C@@](O)(O3)C(=O)C(=O)N3CCCC[C@H]3C(=O)O2)CC[C@H]1O [Novolimus, 16-O-desmethyl-rapamycin]	–	–	–	–	–	–	tissue concentration of tissue adjacent to the balloon treated segment ([5]; Superficial Femoral Artery (SFA) tissue, within or at 6 hours): at least 5.94 ng/mg; tissue concentration of tissue adjacent to the balloon treated segment ([5]; Superficial Femoral Artery (SFA) tissue, within or at 3 day): at least 4.4 ng/mg; tissue concentration of tissue adjacent to the balloon treated segment ([5]; Superficial Femoral Artery (SFA) tissue, within or at 7 days): at least 1.16 ng/mg; tissue concentration of tissue adjacent to the balloon treated segment ([5]; coronary artery tissue, within or at 6 hours): at least 6.52 ng/mg; tissue concentration of tissue adjacent to the balloon treated segment ([5]; coronary artery tissue, within or at 3 day): at least 3.77 ng/mg; tissue concentration of tissue adjacent to the balloon treated segment ([5]; coronary artery tissue, within or at 7 days): at least 1.47 ng/mg

More lines, main results first:

concentration at 3 h [2] [ng/g]	concentration at 28 days [2] [ng/g]	Structure (SMILES)	ACT [1]	concentration at 90 days [2] [ng/g]	IC50 [4] [nM]	IC50 for Tissue factor generated antiplatelet [4] [ng/mg]	further results
~21000	~340	O=C(NC[C@H]1CN(c2ccc(N3CCOCC3=O)cc2)C(=O)O1)c1ccc(Cl)s1 [Rivaroxaban]	–	–	312	0.136	concentration at 1 h ([2]; within one hour from injury and/or implant): ~38000 ng/g; concentration at 15 min ([5]; pig, Superficial Femoral Artery (SFA) tissue, within or at 15 minutes, read-out: tissue concentration of tissue adjacent to the balloon treated segment): ≥ 40600 ng/g; concentration at 15 min ([5]; pig, coronary artery tissue, within or at 15 min, read-out: tissue concentration of tissue adjacent to the balloon treated segment): ≥ 1230 ng/g
~27000	~940	CO[C@H]1C[C@@H]2CC[C@@H](C)[C@@](O)(O2)C(=O)C(=O)N2CCCC[C@H]2C(=O)O[C@H]([C@H](C)C[C@@H]2CC[C@@H](O)[C@H](OC)C2)CC(=O)[C@H](C)/C=C(\C)[C@@H](O)[C@@H](OC)C(=O)[C@H](C)C[C@H](C)/C=C/C=C/C=C/1C [Sirolimus, rapamycin (also called sirolimus)]	–	~1280	–	–	concentration at 7 days ([5]; pig, coronary artery tissue, within or at 7 days, read-out: tissue concentration of tissue adjacent to the balloon treated segment): ≥ 1450 ng/g
